Paper PMC7170299, “Design, synthesis, molecular modelling and biological evaluation of novel 3-(2-naphthyl)-1-phenyl-1H-pyrazole derivatives as potent antioxidants and 15-Lipoxygenase inhibitors” (Journal of Enzyme Inhibition and Medicinal Chemistry, 2020)

What was measured:
[1] = DPPH radical scavenging assay; settings: mean ± SEM of three experiments; 30 min, 517 nm
Method: The DPPH scavenging activity of all synthesized compounds was measured as previously described by Nahar et al.[48] with some modifications. Briefly, 100 µL of different concentrations of the tested compounds (12.5, 25, 50, 100, and 200 µg/mL) were pipetted into a 96-well plate. Then, 100 µL of 100-µM DPPH methanolic solution were added to each well and the plate was incubated protected from light at room temperature for 30 min. The absorbance of the solution was measured at λ517 nm.[49] Ascorbic acid was used as the positive control while DMSO was the negative control. The percentage of DPPH scavenging activity was calculated according to the following equation: % of DPPH scavenging=[(Acontrol–Asample)/Acontrol] ×100, where Acontrol is the absorbance of the control reaction (with all reagents except the test compound), and Asample is the absorbance of the test sample. […] All tests were performed in triplicates.

[2] = NO scavenging assay (sodium nitroprusside / Griess reagent); settings: mean ± SEM of three experiments; 90 min, 546 nm
Method: The NO scavenging activity of all synthesized compounds was measured as previously described by Ho et al.[50] Briefly, 50 µL of different concentrations of the tested compounds (12.5, 25, 50,100, and 200 µg/mL) were pipetted into a 96-well plate. Then, 50 µL of 10-mM sodium nitroprussides dissolved in phosphate-buffered saline PBS (pH 7.4) were added to each well and the plate was incubated for 90 min at room temperature. Next, an equal volume of Griess reagent (1% of sulphanilamide and 0.1% of naphthyl ethylene diamine in 2.5% […]) was added to each well to measure the nitrite content. The absorbance of the formed pink-coloured chromophore was measured at λ 546 nm. DMSO and ascorbic acid were used as the negative and positive control, respectively. All tests were performed in triplicate. The percentage of NO scavenging activity was calculated according to the following equation: % of NO scavenging=[(Acontrol−Asample)/Acontrol]×100 where Acontrol is the absorbance of the control reaction (with all reagents except the test compound), and Asample is the absorbance of the test sample.

[3] = Superoxide scavenging assay (pyrogallol autoxidation); settings: mean ± SEM of three experiments; pyrogallol autoxidation, 325 nm
Method: The improved pyrogallol autoxidation method was used to determine O2^−. RSA of all synthesized compounds as previously described. Briefly, 50 µL of test compounds (12.5, 25, 50,100, and 200 µg/mL) was added to 2900 µl of […] Tris HCl buffer (0.05 M, pH 7.4) containing 1-mM Na2EDTA. Next, 50 µL of 60-mM pyrogallol in1mM HCl had been thoroughly mixed with the mixture. The absorbance of the reaction mixture was measured at A325 nm every 30 s for 5 min. O2^− RSA was expressed by the oxidation degree of a test group in comparison to that of the control. The absorbance at 325 nm was measured against the Tris-HCl buffer every 30 s for 5 min. The percentage of scavenging effect was calculated using the following equation: O2^− radical scavenging %=[(ΔA325, control/T)−(ΔA325nm, sample/T)/ΔA325nm, control/T]×100 where ΔA325 nm, control is the increase in A325 nm of the reaction mixture without the sample and ΔA325 nm, sample is that for the mixture with the sample; T=5 min. The experiments were performed in triplicate.

[4] = test system: Catalase (CAT) activity in liver; test: In vivo catalase (CAT) activity in liver homogenate; parameters: species or system male Wistar albino rats; settings: rat liver; 100 mg/kg orally for 3 days; mean ± SEM, n = 6
Method: (§1) The complete progress of the experiment was conducted using male Wistar albino rats (200–250 g), delivered by the Institutional Breeding House, Egypt, reared and maintained in the animal house of the institution. The animals had free access to food and water ad libitum and maintained in a controlled environment under standard conditions of temperature and humidity with an alternating 12 h light and dark cycle for about a week for acclimatization. The protocol of the study was approved by the Animal Ethics Committee of the Faculty of Pharmacy, Helwan University (ethical code number: 05A2019; date: October 2019). The study was conducted in accordance with the EC, directive 86/609/EEC for animal experiments.
(§2) Rats are weighed at the beginning and at the end of experiment. Fifty-four male albino rats (n=6) were divided into nine different groups. Group I served as a control group and treated with the same volume vehicle only. Group II treated with 100 mg/kg of Ascorbic acid as standard antioxidant drug. Groups (III–IX) orally administered 100 mg/kg of compounds 3a, 4e, 5b, 5c, 6a, 6c, 6e, respectively, for 3 days. The animals were sacrificed by cervical dislocation 24 h after the last dose. Sacrificing is carried out at the same time of the day, to avoid the circadian variation in the level of tissue GSH[53]. Each liver was excised, weighed, rinsed in ice-cold normal saline and frozen for not more than 72 h await analysis of endogenous antioxidant status (GSH levels and CAT activity) and lipid peroxide concentrations. For performing biochemical assays, a 10% liver homogenate in 10 mM phosphate buffer was prepared using tissue homogeniser (Glas-Col®, Cat no.099C K6424, TERRE HAUTE, USA).
Catalase activity in 10% liver homogenates was determined spectrophotometrically according to Sinha AK[54]. The decrease in absorbance at 240 nm due to H2O2 decomposition was measured and the results were expressed in U/mg tissue.

[5] = test system: glutathione (GSH) in liver; test: In vivo reduced glutathione (GSH) level in liver homogenate; parameters: species or system male Wistar albino rats; settings: rat liver; 100 mg/kg orally for 3 days; mean ± SEM, n = 6
Method: as §1, §2
Levels of glutathione (GSH) in liver homogenates were assayed by the deproteinization of tissue homogenate. Then […] supernatant was mixed with di-potassium hydrogen phosphate buffer (pH 8) and 0.4% 5,5′-dithiobis-2-nitrobenzoic acid (Ellman’s reagent). The yellow-coloured substance formed was measured at 412 nm. The results were expressed as GSH mg/g tissue.

[6] = test system: lipid peroxidation (MDA) in liver; test: In vivo lipid peroxide level (TBARS/MDA) in liver homogenate; parameters: species or system male Wistar albino rats; settings: rat liver; 100 mg/kg orally for 3 days; mean ± SEM, n = 6
Method: as §1, §2
Lipid peroxidation level in the liver homogenates was determined as thiobarbituric acid reactive substances (TBARS) by measuring malondialdehyde ‘MDA’ level according to Mihara and Uchiyama[56]. Briefly, 0.5 mL supernatant of tissue homogenate was mixed with 0.6% thiobarbituric acid (TBA) and 1% orthophosphoric acid solution, and heated in a boiling water bath for 45 min. The pink-coloured chromogen formed by the reaction of TBA with MDA was extracted by n-butanol and measured at 535 nm. The results were expressed as nmol/g tissue.

Soybean 15-LOX enzyme = biological target: T1, Soybean 15-LOX enzyme (Glycine max, UniProt P08170); test: In vitro lipoxygenase inhibition (Cayman lipoxygenase inhibitor screening assay kit); type: biochemical; settings: mean ± SEM of three experiments; substrate arachidonic acid
T1 construct: purchased Cayman Chemical 760700
T1 sequence (P08170 1-839): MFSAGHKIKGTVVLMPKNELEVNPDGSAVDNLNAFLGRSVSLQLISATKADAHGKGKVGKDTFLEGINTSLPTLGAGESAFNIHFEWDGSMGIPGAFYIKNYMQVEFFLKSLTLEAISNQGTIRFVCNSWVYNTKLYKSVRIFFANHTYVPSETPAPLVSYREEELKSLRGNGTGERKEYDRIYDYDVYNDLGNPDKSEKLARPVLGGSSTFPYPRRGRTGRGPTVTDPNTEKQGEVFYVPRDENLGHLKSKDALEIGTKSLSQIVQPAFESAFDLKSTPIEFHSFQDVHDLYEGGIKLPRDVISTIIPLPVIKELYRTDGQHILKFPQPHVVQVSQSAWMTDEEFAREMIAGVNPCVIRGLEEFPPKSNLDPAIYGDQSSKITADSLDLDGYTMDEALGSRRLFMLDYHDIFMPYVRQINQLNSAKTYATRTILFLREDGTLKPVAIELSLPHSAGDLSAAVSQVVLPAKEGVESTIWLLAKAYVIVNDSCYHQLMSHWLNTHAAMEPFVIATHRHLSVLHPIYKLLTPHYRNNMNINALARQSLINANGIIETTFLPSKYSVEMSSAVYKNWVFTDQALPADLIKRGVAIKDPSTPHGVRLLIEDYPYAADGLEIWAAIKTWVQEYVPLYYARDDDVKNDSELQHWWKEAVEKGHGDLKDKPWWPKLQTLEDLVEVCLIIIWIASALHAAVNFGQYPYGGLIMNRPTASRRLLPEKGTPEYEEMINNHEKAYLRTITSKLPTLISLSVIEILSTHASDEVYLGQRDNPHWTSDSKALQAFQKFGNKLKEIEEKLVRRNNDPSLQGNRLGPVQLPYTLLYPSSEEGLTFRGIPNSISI
Method: The assay was performed using Cayman’s lipoxygenase inhibitor screening assay kit (Catalog No. 760700, Cayman Chemical, USA) according to the manufacturer’s instructions. Briefly, 90 µL of 15-LOX was pipetted into a 96-well plate. Next, 10 µL of test compound at concentrations (2.5, 5.0 and 10 µM) dissolved in DMSO were added to each well. The reaction was initiated by adding 10 µL substrate (AA) and the plate was placed on a shaker for at least 5 minutes. Finally, 100 µL of chromogen (prepared according to manufacturer’s instructions) was added to each well to stop enzyme catalysis and develop the reaction. 100 µL of Assay buffer (0.1 M Tris-HCl, pH7.4) was used in blank wells. […] The absorbance of the solution was measured at λ 490–500 nm. The percentage inhibition was calculated according to the following equation: % inhibition =[(IA−Ainhibitor sample)/IA]×100 where (IA) is the 100% initial activity and (Ainhibitor sample) is the absorbance of the test sample. Dose–response curve was plotted between % inhibition and the drug concentration. The non-linear dose–response curve was used for calculating drug concentration showing 50% enzyme inhibition.

[7] = parameters: method as in PMID 24752861; settings: at 10^−4 M concentration; cited from earlier work

Row | Compound | DPPH IC50 [1] [µg/mL] | NO IC50 [2] [µg/mL] | IC50 (Soybean 15-LOX enzyme) [nM] | melting point [°C] | Superoxide IC50 [3] [µg/mL] | CAT [4] [U/mg tissue] | GSH [5] [mg/g tissue] | TBARS [6] [nmol/g tissue] | DPPH scavenging activity [7] [%]
1 | O=C1O[C@H]([C@@H](O)CO)C(O)=C1O [Ascorbic acid, reference compound] | 13.67 ± 0.97 | 37.9 ± 1.31 | – | – | 124.99 ± 1.32 | 42.56 ± 3.76 | 8.25 ± 0.45 | 0.392 ± 0.07 | –
2 | Cc1cc(C(C)(C)C)c(O)c(C(C)(C)C)c1 [BHT7, butylated hydroxy toluene] | – | – | – | – | – | – | – | – | 20
3 | COc1ccc(C2=NN(C(N)=S)C(c3cn(-c4ccccc4)nc3-c3ccc4ccccc4c3)C2)cc1 (stereo not shown) [Compound 6b] | 12.02 ± 0.63 | 198.08 ± 1.28 | 1900 ± 60 | 193 to 194 | >200 | – | – | – | –
4 | NS(=O)(=O)c1ccc(N2N=C(c3ccco3)CC2c2cnn(-c3ccccc3)c2)cc1 (stereo not shown) [XI] | – | – | – | – | – | – | – | – | 19

Further lines, with some results ahead:

Row | DPPH IC50 [1] [µg/mL] | NO IC50 [2] [µg/mL] | IC50 (Soybean 15-LOX enzyme) [nM] | melting point [°C] | Compound | Superoxide IC50 [3] [µg/mL] | CAT [4] [U/mg tissue] | GSH [5] [mg/g tissue] | TBARS [6] [nmol/g tissue] | DPPH scavenging activity [7] [%]
5 | 24.42 ± 0.9 | 179.9 ± 1.31 | 1830 ± 70 | 198 to 199 | Cc1ccc(C2=NN(c3ccccc3)C(c3cn(-c4ccccc4)nc3-c3ccc4ccccc4c3)C2)cc1 (stereo not shown) [Compound 4c, 3′-Naphthalen-2-yl-2,1′-diphenyl-5-p-tolyl-3,4-dihydro-2H, 1’H -[3,4′]bipyrazole] | 145.7 ± 1.42 | – | – | – | –
6 | 34.39 ± 1.03 | >200 | 2530 ± 90 | 187 to 188 | c1ccc(C2=NN(c3ccccc3)C(c3cn(-c4ccccc4)nc3-c3ccc4ccccc4c3)C2)cc1 (stereo not shown) [Compound 4a, 3′-Naphthalen-2-yl-2,5,1′-triphenyl-3,4-dihydro-2H,1’H-[3,4′]bipyrazole] | 176.14 ± 1.63 | – | – | – | –
7 | 21.28 ± 1.14 | >200 | 4000 ± 60 | 156 to 157 | COc1ccc(C2=NN(c3ccccc3)C(c3cn(-c4ccccc4)nc3-c3ccc4ccccc4c3)C2)cc1 (stereo not shown) [Compound 4b, 5-(4-Methoxyphenyl)-3′-naphthalen-2-yl-2,1′-diphenyl-3,4-dihydro-2H,1’H-[3,4′] bipyrazole] | 65.63 ± 1.46 | – | – | – | –
